Reference: patent US8877744B2, “1,4-Oxazepines as BACE1 and/or BACE2 inhibitors” (Hoffmann-La Roche Inc., priority 2011, dated 2014)
Where a name gives a salt, the structure may show the parent alone.

Biological target: T1, BACE1 (Homo sapiens, UniProt P56817)
T1 construct: endogenous in cells; host or cells: HEK293 stably transfected with human APP695 wt
Assay: Cellular Aβ-lowering assay b): HEK293 APP Abeta 40 AlphaLISA Assay
Format: cell-based
Settings: assay b): HEK293 APP cells, Aβ 40 in supernatant by AlphaLISA, 18-20 hrs incubation
Experimental: b) HEK293 APP: Abeta 40 AlphaLISA Assay
The cells were seeded in 96 well Microtiter plates in cell culture medium (Iscove's, plus 10% (v/v) fetal bovine serum, penicillin/streptomycin) to about 80% confluency and the compounds were added at a 3× concentration in ⅓ volume of culture medium (final DMSO concentration was kept at 1% v/v). After 18-20 hrs incubation at 37° C. and 5% CO2 in a humidified incubator, the culture supernatants were harvested for the determination of Aβ 40 concentrations using Perkin-Elmer Human Amyloid beta 1-40 (high specificity) Kit (Cat#AL275C).
In a Perkin-Elmer White Optiplate-384 (Cat#6007290), […] culture supernatants were combined with 2 μl of a 10X AlphaLISA Anti-hAβ Acceptor beads+Biotinylated Antibody Anti-Aβ 1-40 Mix (50 μg/mL/5 nM). After 1 hour room temperature incubation, 16 μl of a 1.25× preparation of Streptavidin (SA) Donor beads (25 μg/mL) were added and incubated for 30 minutes in the Dark. Light Emission at 615 nm was then recorded using EnVision-Alpha Reader. Levels of Aβ 40 in the culture supernatants were calculated as percentage of maximum signal (cells treated with 1% DMSO without inhibitor). The IC50 values were calculated using the Excel XLfit software.

T1 sequence (P56817 46-501): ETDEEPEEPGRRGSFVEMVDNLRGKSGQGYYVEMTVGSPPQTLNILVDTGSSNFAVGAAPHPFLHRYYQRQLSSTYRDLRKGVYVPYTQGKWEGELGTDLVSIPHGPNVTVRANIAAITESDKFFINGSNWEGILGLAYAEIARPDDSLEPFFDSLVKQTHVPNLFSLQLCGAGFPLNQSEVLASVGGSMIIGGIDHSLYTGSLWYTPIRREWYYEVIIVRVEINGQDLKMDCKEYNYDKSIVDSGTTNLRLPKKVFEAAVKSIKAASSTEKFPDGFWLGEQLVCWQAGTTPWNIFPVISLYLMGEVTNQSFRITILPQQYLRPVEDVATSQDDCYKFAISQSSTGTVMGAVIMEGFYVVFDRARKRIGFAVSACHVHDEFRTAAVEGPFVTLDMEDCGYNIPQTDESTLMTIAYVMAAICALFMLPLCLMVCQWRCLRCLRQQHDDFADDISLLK

| IC50 | Structure (SMILES) |
| --- | --- |
| 510 nM | CC1(C)OCC(N)=N[C@](C)(c2cc(-c3cc(F)cc(Cl)c3)ccc2F)C1(F)F [Example 11, (R)-5-(5′-Chloro-4,3′-difluoro-biphenyl-3-yl)-6,6-difluoro-5,7,7-trimethyl-2,5,6,7-tetrahydro-[1,4]oxazepin-3-ylamine hydrochloride] |
| 5180 nM | CC(C)(C)COS(=O)(=O)c1cccc(-c2ccc(F)c([C@@]3(C)N=C(N)COC(C)(C)C3(F)F)c2)c1 [Example 12, 3′-((R)-3-Amino-6,6-difluoro-5,7,7-trimethyl-2,5,6,7-tetrahydro-[1,4]oxazepin-5-yl)-4′-fluoro-biphenyl-3-sulfonic acid 2,2-dimethyl-propyl ester] |
| 4000 nM | CC(C)(C)NS(=O)(=O)c1cccc(-c2ccc(F)c([C@@]3(C)N=C(N)COC(C)(C)C3(F)F)c2)c1 [Example 15, 3′-((R)-3-Amino-6,6-difluoro-5,7,7-trimethyl-2,5,6,7-tetrahydro-[1,4]oxazepin-5-yl)-4′-fluoro-biphenyl-3-sulfonic acid tert-butylamide] |
| 1550 nM | CC(C)(C)NS(=O)(=O)c1cncc(-c2ccc(F)c([C@@]3(C)N=C(N)COC(C)(C)C3(F)F)c2)c1 [Example 16, 5-[3-((R)-3-Amino-6,6-difluoro-5,7,7-trimethyl-2,5,6,7-tetrahydro-[1,4]oxazepin-5-yl)-4-fluoro-phenyl]-pyridine-3-sulfonic acid tert-butylamide] |
| 710 nM | CC1(C)OCC(N)=N[C@](C)(c2cc(-c3ccc(C#N)cc3)ccc2F)C1(F)F [Example 20, 3′-((R)-3-Amino-6,6-difluoro-5,7,7-trimethyl-2,5,6,7-tetrahydro-[1,4]oxazepin-5-yl)-4′-fluoro-biphenyl-4-carbonitrile] |
| 7430 nM | CC1(C)OCC(N)=N[C@](C)(c2cc(-c3nc4ccc(Cl)cc4s3)ccc2F)C1(F)F [Example 21, (R)-5-[5-(6-Chloro-benzothiazol-2-yl)-2-fluoro-phenyl]-6,6-difluoro-5,7,7-trimethyl-2,5,6,7-tetrahydro-[1,4]oxazepin-3-ylamine hydrochloride] |
| 200 nM | CC1(C)OCC(N)=N[C@](C)(c2cc(-c3cn(-c4ccccn4)cn3)ccc2F)C1(F)F [Example 22, (R)-6,6-Difluoro-5-[2-fluoro-5-(1-pyridin-2-yl-1H-imidazol-4-yl)-phenyl]-5,7,7-trimethyl-2,5,6,7-tetrahydro-[1,4]oxazepin-3-ylamine] |
| 220 nM | CC1(C)OCC(N)=N[C@](C)(c2cc(-c3cn(-c4ccc(C(F)(F)F)cn4)cn3)ccc2F)C1(F)F [Example 23, (R)-6,6-Difluoro-5-{2-fluoro-5-[1-(5-trifluoromethyl-pyridin-2-yl)-1H-imidazol-4-yl]-phenyl}-5,7,7-trimethyl-2,5,6,7-tetrahydro-[1,4]oxazepin-3-ylamine] |
| 1270 nM | CC1(C)OCC(N)=N[C@](C)(c2cc(C#Cc3cccc(Cl)c3)c(F)cc2F)C1(F)F [Example 24, (R)-5-[5-(3-Chloro-phenylethynyl)-2,4-difluoro-phenyl]-6,6-difluoro-5,7,7-trimethyl-2,5,6,7-tetrahydro-[1,4]oxazepin-3-ylamine] |
| 940 nM | CC1(C)OCC(N)=N[C@](C)(c2cc(-c3cnn(-c4ccc(F)cc4)c3)c(F)cc2F)C1(F)F [Example 29, (R)-6,6-Difluoro-5-{2,4-difluoro-5-[1-(4-fluoro-phenyl)-1H-pyrazol-4-yl]-phenyl}-5,7,7-trimethyl-2,5,6,7-tetrahydro-[1,4]oxazepin-3-ylamine] |
| 75 nM | COc1ncc(-c2cc([C@@]3(C)N=C(N)COC(C)(C)C3(F)F)c(F)cc2F)cn1 [Example 30, (R)-5-[2,4-Difluoro-5-(2-methoxy-pyrimidin-5-yl)-phenyl]-6,6-difluoro-5,7,7-trimethyl-2,5,6,7-tetrahydro-[1,4]oxazepin-3-ylamine formate] |
| 180 nM | CC1(C)OCC(N)=N[C@](C)(c2cc(-c3nc4ccc(Cl)cc4o3)c(F)cc2F)C1(F)F [Example 31, (R)-5-[5-(6-Chloro-benzooxazol-2-yl)-2,4-difluoro-phenyl]-6,6-difluoro-5,7,7-trimethyl-2,5,6,7-tetrahydro-[1,4]oxazepin-3-ylamine] |
| 500 nM | CC1(C)OCC(N)=N[C@](C)(c2cc(-c3ncc(Cl)cn3)c(F)cc2F)C1(F)F [Example 32, (R)-5-[5-(5-Chloro-pyrimidin-2-yl)-2,4-difluoro-phenyl]-6,6-difluoro-5,7,7-trimethyl-2,5,6,7-tetrahydro-[1,4]oxazepin-3-ylamine] |
| 3 nM | CC1(C)OCC(N)=N[C@](C)(c2cc(C#Cc3ccc(C#N)cn3)ccc2F)C1(F)F [Example 33, 6-[3-((R)-3-Amino-6,6-difluoro-5,7,7-trimethyl-2,5,6,7-tetrahydro-[1,4]oxazepin-5-yl)-4-fluoro-phenylethynyl]-nicotinonitrile] |
| 13 nM | CC1(C)OCC(N)=N[C@](C)(c2cc(C#Cc3ncc(Cl)cn3)ccc2F)C1(F)F [Example 34, (R)-5-[5-(5-Chloro-pyrimidin-2-ylethynyl)-2-fluoro-phenyl]-6,6-difluoro-5,7,7-trimethyl-2,5,6,7-tetrahydro-[1,4]oxazepin-3-ylamine] |
| 79 nM | CC1(C)OCC(N)=N[C@](C)(c2cc(C#Cc3ccnc(Cl)c3)ccc2F)C1(F)F [Example 35, (R)-5-[5-(2-Chloro-pyridin-4-ylethynyl)-2-fluoro-phenyl]-6,6-difluoro-5,7,7-trimethyl-2,5,6,7-tetrahydro-[1,4]oxazepin-3-ylamine] |
| 115 nM | CC1(C)OCC(N)=N[C@](C)(c2cc(C#Cc3cc(C#N)ccn3)ccc2F)C1(F)F [Example 36, 2-[3-((R)-3-Amino-6,6-difluoro-5,7,7-trimethyl-2,5,6,7-tetrahydro-[1,4]oxazepin-5-yl)-4-fluoro-phenylethynyl]-isonicotinonitrile] |
| 145 nM | CC1(C)OCC(N)=N[C@](C)(c2cc(C#Cc3ccc(Cl)nn3)ccc2F)C1(F)F [Example 37, (R)-5-[5-(6-Chloro-pyridazin-3-ylethynyl)-2-fluoro-phenyl]-6,6-difluoro-5,7,7-trimethyl-2,5,6,7-tetrahydro-[1,4]oxazepin-3-ylamine] |
| 152 nM | CC1(C)OCC(N)=N[C@](C)(c2cc(C#Cc3cncc(Cl)c3)ccc2F)C1(F)F [Example 38, (R)-5-[5-(5-Chloro-pyridin-3-ylethynyl)-2-fluoro-phenyl]-6,6-difluoro-5,7,7-trimethyl-2,5,6,7-tetrahydro-[1,4]oxazepin-3-ylamine] |
| 360 nM | CC1(C)OCC(N)=N[C@](C)(c2cc(C#Cc3ccccn3)ccc2F)C1(F)F [Example 39, (R)-6,6-Difluoro-5-(2-fluoro-5-pyridin-2-ylethynyl-phenyl)-5,7,7-trimethyl-2,5,6,7-tetrahydro-[1,4]oxazepin-3-ylamine] |
| 480 nM | COc1cnc(C#Cc2ccc(F)c([C@@]3(C)N=C(N)COC(C)(C)C3(F)F)c2)cn1 [Example 40, (R)-6,6-Difluoro-5-[2-fluoro-5-(5-methoxy-pyrazin-2-ylethynyl)-phenyl]-5,7,7-trimethyl-2,5,6,7-tetrahydro-[1,4]oxazepin-3-ylamine] |
| 550 nM | CC1(C)OCC(N)=N[C@](C)(c2cc(-c3nc4cc(Cl)ccc4o3)c(F)cc2F)C1(F)F [Example 41, (R)-5-[5-(5-Chloro-benzooxazol-2-yl)-2,4-difluoro-phenyl]-6,6-difluoro-5,7,7-trimethyl-2,5,6,7-tetrahydro-[1,4]oxazepin-3-ylamine] |
| 550 nM | CC1(C)OCC(N)=N[C@](C)(c2cc(-c3nc4cc(F)c(F)cc4o3)c(F)cc2F)C1(F)F [Example 42, (R)-5-[5-(5,6-Difluoro-benzooxazol-2-yl)-2,4-difluoro-phenyl]-6,6-difluoro-5,7,7-trimethyl-2,5,6,7-tetrahydro-[1,4]oxazepin-3-ylamine] |
| 70 nM | CC1(C)OCC(N)=N[C@](C)(c2cc(-c3nc4ccc(C(F)(F)F)cc4o3)c(F)cc2F)C1(F)F [Example 43, (R)-5-[2,4-Difluoro-5-(6-trifluoromethyl-benzooxazol-2-yl)-phenyl]-6,6-difluoro-5,7,7-trimethyl-2,5,6,7-tetrahydro-[1,4]oxazepin-3-ylamine] |
